Columns and labels:
[1] = system: pancreatic ductal adenocarcinoma (PDAC); settings: adjuvant treatment, patients with resectable disease; cited from earlier work
[2] = target: T1, STAT3 (Mus musculus, UniProt P42227); assay: Western blot analysis of STAT3 expression in cell-lysate extracts; assay type: cell-based; settings: NR PDAC cells treated with SD-36; GAPDH loading control
T1 construct: Western blot analysis of the expression of STAT3 of cell-lysate extracts; endogenous in cells; host or cells: Egfr lox/lox; Raf1 lox/lox PDAC (NR) tumor cells infected with Adeno-GFP or Adeno-CRE
T1 sequence (P42227 whole entry): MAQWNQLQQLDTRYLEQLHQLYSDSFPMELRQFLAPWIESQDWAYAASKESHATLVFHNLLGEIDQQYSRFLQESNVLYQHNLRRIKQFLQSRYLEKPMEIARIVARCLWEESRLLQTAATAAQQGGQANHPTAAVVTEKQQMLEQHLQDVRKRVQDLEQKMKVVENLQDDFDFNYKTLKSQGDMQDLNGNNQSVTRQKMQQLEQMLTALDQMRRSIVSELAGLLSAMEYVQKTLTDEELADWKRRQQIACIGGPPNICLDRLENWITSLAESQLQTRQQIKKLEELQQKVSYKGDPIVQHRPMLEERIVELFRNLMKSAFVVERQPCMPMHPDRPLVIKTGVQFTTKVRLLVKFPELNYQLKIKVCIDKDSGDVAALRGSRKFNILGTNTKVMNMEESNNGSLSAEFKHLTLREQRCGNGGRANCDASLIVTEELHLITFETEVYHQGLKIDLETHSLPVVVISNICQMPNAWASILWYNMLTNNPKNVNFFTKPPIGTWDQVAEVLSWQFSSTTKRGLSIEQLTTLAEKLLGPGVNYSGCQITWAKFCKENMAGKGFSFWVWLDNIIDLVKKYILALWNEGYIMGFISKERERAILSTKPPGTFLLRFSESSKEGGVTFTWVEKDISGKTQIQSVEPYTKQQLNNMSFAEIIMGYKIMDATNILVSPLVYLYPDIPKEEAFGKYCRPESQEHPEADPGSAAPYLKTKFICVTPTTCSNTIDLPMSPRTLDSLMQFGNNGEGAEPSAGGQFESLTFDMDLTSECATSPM
Experimental: (§1) FIG. 2. A. Colony formation assay of Egfr^lox/lox; Raf1^lox/lox PDAC cells infected with Adeno-GFP and Adeno-CRE viral particles in combination with treatment with 1 μM SD-36. 5000 cells were seeded for 10 days and culture medium was changed every day. B. Western blot analysis of the expression of STAT3 of cell-lysate extracts. GAPDH was used as loading control.
The expression of STAT3 was targeted by shRNAs after genetic deletion of Egfr and Raf1 in NR cells by Adeno-GFP and Adeno-GFP-CRE infection. […] NR tumor cells, previously infected with Adeno-GFP and Adeno-GFP-CRE virus to eliminate the EGFR and the Raf1 (floxed targets), were treated with SD-36 for 10 days in a colony formation assay. Elimination of the targets was very efficient.

[3] = system: Egfr^lox/lox; Raf1^lox/lox PDAC cells; assay: Colony formation assay of NR PDAC cells infected with Adeno-GFP or Adeno-CRE; assay type: cell-based; settings: 1 μM SD-36, 10 days
Experimental: FIG. 1. Colony formation assay of Egfr^lox/lox; Raf1^lox/lox PDAC cells infected with Adeno-GFP and Adeno-CRE viral particles in combination with small-hairpin RNA (shRNA) against STAT3 and Scr (empty vector) as control. 5000 cells were seeded for 10 days. B. Western blot analysis of the expression of EGFR, RAF1 and STAT3 of cell-lysate extracts. GAPDH was used as loading control.
as §1
(§2) Silencing of Egfr, Raf1 and Stat3 was mediated with the lentiviral short hairpin RNA (shRNA) plasmids TRCN0000055218, TRCN0000012628 and TRCN0000071453 respectively. The non-target shRNA vector was used as control. The pharmacological treatments were conducted with the following agents: Afatinib (20 mg/kg, daily), SD-36 (50 mg/kg, daily).
The expression of STAT3 was targeted by shRNAs after genetic deletion of Egfr and Raf1 in NR cells by Adeno-GFP and Adeno-GFP-CRE infection. […]

[4] = system: NR PDACs (tumors of big sizes); assay: Tumor growth monitored by ultrasound in genetically engineered mice; assay type: in vivo, mouse; settings: NR triple: SD-36 50 mg/kg daily added to tamoxifen and Afatinib 20 mg/kg daily
Experimental: as §2
It was also included in the combined treatment Afatinib (a tyrosine receptor kinase inhibitor against EGFR) and SD-36 (PROTAC degrader against STAT3).

[5] = system: STAT3; settings: Kras mutant pancreatic and colon cancer cells; cited from earlier work

Q: For FOLFIRINOX, which “median overall survival (OS)” value [1] is on record?
A: 54 months

Q: What does the source list for NC(=O)CC[C@H](NC(=O)[C@@H]1CC[C@@H]2CCN(C(=O)CCCCCC#Cc3cccc4c3CN(C3CCC(=O)NC3=O)C4=O)C[C@H](NC(=O)c3cc4cc(C(F)(F)P(=O)(O)O)ccc4[nH]3)C(=O)N21)C(=O)NC(c1ccccc1)c1ccccc1 (stereo partly shown) [SD-36]?
A: STAT3 degradation [2]: effectively degraded STAT3; growth of NR cells that express Egfr and Raf1 (toxicity) ([3]; Adeno-GFP infected NR cells, versus vehicle control): grew similarly as the vehicle control; colony formation / cell death of NR tumor cells ([3]; NR cells after deletion of Egfr and Raf1 (Adeno-CRE)): cell death of NR tumor cells; tumor growth [4]: significant delay and slight reduction of tumor growth

Q: With COc1cccc(-c2cc(=O)c3ccccc3o2)c1N [PD98059] as the compound, how does the STAT3 activation [5] read?
A: significantly activated

Q: For Cn1cnc2c(F)c(Nc3ccc(Br)cc3Cl)c(C(=O)NOCCO)cc21 [AZD6244], which STAT3 activation [5] is on record?
A: significantly activated

Reference: patent publication US20260216226A1, “TRIPLE COMBINED THERAPY INHIBITING EGFR, RAF1 AND STAT3 AGAINST PANCREATIC DUCTAL ADENOCARCINOMA” (FUNDACION DEL SECTOR PUBLICO ESTATAL CENTRO NACIONAL DE …, priority 2023, published 2026)
